Results as given in a melting point compilation (Tetko et al.; mined from patent text by program, amines drawn as free bases though some values may be those of a salt).

In the case of `O=C(O)CCCCc1cc2ccccc2n1-c1cccnc1`, the melting point is reported as 143 to 144 °C.
Work on `CCC(C)(C)N=C(NC#N)Nc1cc(Br)cc(Br)c1` yielded a melting point of 168 to 170 °C.
Work on `Cc1nc(O)sc1CC(C)Cl` (stereo not given) yielded a melting point of 91 to 93 °C.
Work on `CCOC(=O)Cc1c(C#N)cnc2c(NC(=O)c3c(Cl)cccc3Cl)cccc12` yielded a melting point of 171 to 173 °C.
With `CN(CC(=O)O)C(=O)CCS` the melting point was 157 to 158 °C.
Work on `C=CC(=O)OCCCCCCOc1ccc(C(=O)OCCOCC2(c3ccccc3)C=CC=CC2C=Cc2ccc(OCCCCCC)cc2)cc1` (stereo not given) yielded a melting point of 87 °C.
In the case of `CS(=O)(=O)On1nnc2ccc([N+](=O)[O-])cc21`, the melting point is reported as 115 to 116 °C.
Work on `C[C@H]1Cn2c(=S)[nH]c3cccc(c32)CN1CC1CC1` yielded a melting point of 197 °C.
For `CN1CCC(CC(O)c2cc(-c3ccccc3)nc3ccccc23)CC1` (stereo not given), the melting point was 208 °C.
`CN(CCOc1ccc(OC(F)(F)F)cc1)C1CCN(c2ccc(OC[C@@]3(C)Cn4cc([N+](=O)[O-])nc4O3)cc2)CC1` gave a melting point of 186 to 188 °C.
With `O=C(Nc1nonc1-c1ccccc1)NC1CCC(C(F)(F)F)CC1` (stereo not given) the melting point was 212 °C.
In the case of `C=C[C@@H]1O[C@](C#CC2CC2)(C(F)(F)F)c2c(ccc(F)c2F)NC1=O` (relative stereo), the melting point is reported as 171 to 172 °C.
`c1ccc(COc2ccc([C@H]3CC[C@@H](NCCOc4ccccc4)CC3)cc2)cc1` gave a melting point of 95 to 98 °C.
Work on `Cc1ccc(C[C@@H]2CN(C(=O)/C=C/c3ccccc3)CCN2C(=O)c2cc(C(F)(F)F)cc(C(F)(F)F)c2)cc1C` yielded a melting point of 87 to 91 °C.
Compound `CCOc1c(CN2CCCCC2)c2c(c3c1OC(C)(C)C3)C(c1cccc(NC(=O)c3ccccc3C(=O)O)c1)=NC(C)(C)C2` has a melting point of 155 to 157 °C.
`CCCCCCc1ccc(-c2ccc(OC(=O)C3(C#N)CCCC(C)C3)cc2)cc1` (stereo not given) gave a melting point of 51 °C.
With `CCCC(NS(=O)(=O)c1ccc(Cl)cc1)C(=O)Nc1ccc(CC(=O)O)cc1` (racemic) the melting point was 202 to 204 °C.
`COC(=O)c1sc2cc(OC)ccc2c1C` gave a melting point of 118 to 120 °C.
Compound `COC(=O)CCc1ccc(O)c(C(C)(C)C)c1` has a melting point of 59 to 61 °C.
Work on `CCOCCCc1ccc(-c2ccc3c(c2)C=C(C(=O)Nc2ccc(CN(C)C4CCOCC4)cc2)CCS3(=O)=O)cc1` yielded a melting point of 217 to 219 °C.
Compound `O=C(Nc1noc2ccccc12)N1CCN(C(=O)OCc2ccccc2)CC1` has a melting point of 137 to 138 °C.
For `NCCNc1ccc2[nH]ncc2c1`, the melting point was 150 to 165 °C.
`N#CCC(=O)Nc1ccc(N)c([N+](=O)[O-])c1` showed a melting point of 218 to 221 °C.
For `CCCCNC(=O)c1cc(S(=O)(=O)NC23CC4CC(CC(C4)C2)C3)cc2c1OCCO2`, the melting point was 147 °C.
`CC(=O)OC1CC2(C)C(CCC2(Sc2ccccc2)Sc2ccccc2)C2CCC3=CC(=O)C=CC3(C)C12F` (stereo not given) showed a melting point of 180 to 184 °C.
With `Cn1nc(-c2ccc3c(c2)CCNCC3)ccc1=O` the melting point was 183 to 185 °C.
In the case of `CN(C)S(=O)(=O)c1cc(S(=O)(=O)N(C)C)c(C(Cl)=C(Cl)Cl)cc1N`, the melting point is reported as 238 to 239 °C.
Compound `CCCCS(=O)(=O)c1cn(C)c2ccccc2c1=O` has a melting point of 107 to 108 °C.
`O=C(O)c1cc(=O)c2c([nH]1)-c1ccccc1SC2` gave a melting point of 256 to 257 °C.
For `CCCc1nccn1-c1ncnc2nc[nH]c12`, the melting point was 242 to 244 °C.
`Cn1c(-c2cnc(-c3ccccc3)nc2)cnc1-c1ccccc1` gave a melting point of 211 °C.
Compound `CC[Si](CC)(CC)Oc1cccc2ncc3c(c12)CCCC3` has a melting point of 110 to 111 °C.
`CCCc1c(OCC=CS(=O)(=O)c2ccc(CC(=O)O)c(F)c2)ccc(C(C)=O)c1O` showed a melting point of 249 to 251 °C.
With `Brc1ccc(-c2cnc(-c3ccccc3)nc2)cc1` the melting point was 194 °C.
`O=C(Nc1ccc(C(=O)N2CCc3cn[nH]c3-c3ccccc32)cn1)c1ccccc1-c1ccccc1` gave a melting point of 228 to 234 °C.
`O=C(Cc1ccccc1)NC1CN(C(C(=O)O)c2ccc(O)cc2)C1=O` (stereo not given) gave a melting point of 134 to 141 °C.
Work on `COc1ccc2cc(C3CCN(C[C@H](O)COc4cccc5oc(-c6nnc(C)o6)cc45)CC3)ccc2c1` yielded a melting point of 156 to 158 °C.
Compound `O=C(CSc1n[nH]c(-c2ccccc2)n1)C12CC3CC(CC(C3)C1)C2` has a melting point of 187 to 188 °C.
Work on `CNS(=O)(=O)C(C)C(=O)C=C(C)N` (stereo not given) yielded a melting point of 140 to 143 °C.
`O=C(O)CCc1cn(Cc2ccc(C(=O)NCc3ccc(C(F)(F)F)cc3)cc2)nc1-c1ccccc1` gave a melting point of 151 to 152 °C.
For `CCN1C(=O)C(=S2CN(CC)c3ccccc32)SC1=S` (stereo not given), the melting point was 246 to 248 °C.
With `CCCN(c1c2c(nc3ccccc13)CCCC2)n1cc(C)c2ccccc21` the melting point was 142 to 144 °C.
For `O=S(CCc1ccccc1)c1nc2cnccc2[nH]1` (stereo not given), the melting point was 171 to 174 °C.
`CN1CCN(C(=O)Nc2ccccc2NC(=O)c2cc(C(C)(C)C)c(O)c(C(C)(C)C)c2)CC1` showed a melting point of 160 to 161 °C.
For `COc1ccc(C(F)(F)F)cc1-n1c(=O)[nH]c2cc(C(F)(F)F)ccc21`, the melting point was 226 °C.
For `Cc1coc2c(c1=O)N(C)S(=O)(=O)c1ccccc1-2`, the melting point was 214 to 216 °C.
With `CCc1nc2c(N)nc3ccccc3c2n1CCOCCNC(=O)c1ccccc1` the melting point was 188 to 191 °C.
Work on `CC(=O)[C@@H]1CC[C@@H](C)C[C@H]1O` yielded a melting point of 46 to 46.5 °C.
`CNCc1nnc2n1-c1ccc(Cl)cc1C(c1ccccc1)=NC2` showed a melting point of 152 to 156 °C.
Compound `COc1nc2cc(Cl)ccc2nc1Cl` has a melting point of 92 to 95 °C.
Compound `CCOC(=O)NC(=S)OCc1ccc(Cl)cc1` has a melting point of 95 °C.
With `CC(=O)N1CCc2sc(C)c(C(=O)CCCN3CCC(c4noc5cc(F)ccc45)CC3)c2C1` the melting point was 116 to 118 °C.
Compound `Cc1c(NC(=O)CC(C)(C)C)c(C)c2c(c1C(=O)O)OCC2c1ccc(C(C)C)cc1` (stereo not given) has a melting point of 194 to 195 °C.
Compound `NC(=O)OCC(O)COc1cc(-c2cccc(Cl)c2)on1` (stereo not given) has a melting point of 149 to 150 °C.
Compound `Cn1cc(CO)c(=O)c2cccc(F)c21` has a melting point of 206 to 210 °C.
In the case of `CC(=O)NCC1CN(c2ccc(N3CCN(c4nnc(C#N)s4)C(F)C3)cc2)C(=O)O1` (stereo not given), the melting point is reported as 200 to 202 °C.
For `C#CC(O)(C(Oc1ccc(F)cc1)n1cncn1)C(C)(C)C` (stereo not given), the melting point was 134 to 135 °C.
Compound `CC(=O)Nc1nc2c(Oc3cc(-c4ccc(Br)cc4)ncn3)cccc2s1` has a melting point of 271 to 272 °C.
`Cn1c(CC#N)ccc1C(=O)c1ccc(Br)cc1` showed a melting point of 139 to 141 °C.
Compound `Cc1c(C)c2c(c(C)c1OCc1ccccc1)C(=O)CC(C)(COC(C)(C)C)O2` (stereo not given) has a melting point of 51 to 62 °C.
In the case of `Cc1onc(-c2ccc(Br)cc2)c1-c1ccc(S(N)(=O)=O)cc1`, the melting point is reported as 152 to 153 °C.
In the case of `CCOc1ccc(S(C)(=O)=O)cc1C(=O)O`, the melting point is reported as 139 to 141 °C.
Work on `O=S(=O)(CCO)CCCS(=O)(=O)CCO` yielded a melting point of 158 to 161 °C.
For `CC(C)(C)OC(=O)N1CC2CN(C(N)=S)CC2C1` (stereo not given), the melting point was 188 to 190 °C.
Compound `CC12CCc3ccccc3C1=NNC(=O)C2` (stereo not given) has a melting point of 189 to 190 °C.
In the case of `COc1cc(C=O)ccc1OCCN1c2ccccc2Sc2ccccc21`, the melting point is reported as 130 °C.
Compound `CCCCc1nc(SC)c(C(=O)O)n1Cc1ccc(-c2ccccc2S(=O)(=O)NC(=O)C(c2ccccc2)c2ccccc2)cc1` has a melting point of 205 °C.
`CNC(=O)[C@H](Cc1ccc(OC)cc1)NC(=O)[C@H](CC(C)C)N[C@H](CCC(=O)NCc1ccccc1)C(=O)O` gave a melting point of 104 to 108 °C.
With `NC1NC=CN1c1ccncc1` (stereo not given) the melting point was 190 °C.
Compound `Cc1ccc2c(NCc3ccc(NC(=O)c4ccc(Cl)cc4)cc3)nc(N3CCCCCC3)nc2c1` has a melting point of 192 to 194 °C.
`Cc1nnc2n1CC(=O)N(C)c1ccc(Cl)cc1-2` showed a melting point of 228 to 230 °C.
In the case of `CCCc1cc(Cl)c2oc(C(=O)c3ccccc3)c(C)c2c1OC(=O)c1ccccc1`, the melting point is reported as 141 to 142 °C.
For `O=C(O)c1cn(-c2ccc(F)cc2)c2c(F)c(N3Cc4ccc(F)cc4C3)c(F)cc2c1=O`, the melting point was over 300 °C.
In the case of `COc1ccc(CNc2n[nH]cc2C(N)=O)cc1OC1CCCC1`, the melting point is reported as 128 to 130 °C.
`CC(Cl)N1C(=O)CCC1=O` (stereo not given) gave a melting point of 83.5 to 84.5 °C.
In the case of `CCC1CCC(NC(=O)NS(=O)(=O)c2ccc(CCNC(=O)N3CCC(C)CC3=O)cc2)CC1` (stereo not given), the melting point is reported as 178 to 180 °C.
For `O=[N+]([O-])c1ccc2c(c1)C(O)c1cccnc1CC2` (stereo not given), the melting point was 222 to 223 °C.
Compound `Cc1ccc(Oc2cncc3sc(C(N)=O)cc23)cc1` has a melting point of 196 to 197 °C.
Work on `NCC(O)c1nn(Cc2ccccc2)c2ccccc12` (stereo not given) yielded a melting point of 126 °C.
`Cc1ncnc(-c2ccc(Cl)cc2F)c1Cl` gave a melting point of 77 to 79 °C.
In the case of `CCCN(CCC)CC1CCCCN1CCNC(=O)N1c2ccccc2NC(=O)c2c1ccn2C` (stereo not given), the melting point is reported as 153 to 155 °C.
For `N=C(N)c1nc2c(s1)CCc1c-2sc2ncnn12`, the melting point was over 300 °C.
Work on `CSc1ncc(Cc2cnc3ccccc3c2)c(=O)[nH]1` yielded a melting point of 220 to 221 °C.
`Cc1c(Br)cccc1NCc1cc(C(C)(C)C)sc1C(=O)O` showed a melting point of 150 to 152 °C.
For `C[C@@H](O[Si](C)(C)C(C)(C)C)[C@@H]1C(=O)N[C@@H]1S(C)(=O)=O`, the melting point was 101 to 102 °C.
With `O=C(NC1CC1)c1c(NC(=O)c2cc(C(F)(F)F)nn2-c2ncccc2Cl)ccc2cc[nH]c12` the melting point was 239 to 241 °C.
With `COC(=O)Cc1nc2nc(C)cc(Cl)n2n1` the melting point was 111 to 112 °C.
For `CN1Cc2c(C(N)=O)ncn2-c2ccc(F)c(Cl)c2C1=O`, the melting point was 292 to 294 °C.
Work on `CCNC(=O)C(=O)[C@H](Cc1ccccc1)NC(=O)[C@H](CC(C)C)NC(=O)O[C@H]1CCOC1` yielded a melting point of 159 to 161 °C.
For `CC1CCc2c(Cl)c(Cl)cc3c(=O)c(C(=O)O)cn1c23` (stereo not given), the melting point was 269 to 271 °C.
Compound `CS(=O)(=O)c1ccc(C2=C(c3ccc(F)cc3)CC3(CC3)C2)cc1` has a melting point of 140 to 142 °C.
In the case of `CCN1C(=O)C(C)(C)CCc2c1ccc(Nc1ncc(Cl)c(N[C@@H]3CCCC[C@H]3NS(C)(=O)=O)n1)c2OC`, the melting point is reported as 123 to 126 °C.
`c1ccc2c3ccocc-3nc2c1` gave a melting point of 109 to 111 °C.
For `COC1=C(OC)C(=O)c2c(C#N)cccc2C1=O`, the melting point was 171 to 172 °C.
For `CCOC(=O)c1c(O)c2ccc(C)nc2n(Cc2ccccc2)c1=O`, the melting point was 155 to 157 °C.
Compound `Cc1c(NC(=O)CC(C)(C)C)cc2c(c1C)OC(C)(C)C2(O)Cc1ccc(C(C)C)cc1` (stereo not given) has a melting point of 177 to 178 °C.
With `O=C(O)c1cc(O)cc2nc3c(O)cccc3nc12` the melting point was over 300 °C.
For `NC(=O)N1C(=O)C(=C(OC(=O)COCc2ccccc2)c2cccs2)c2cc(F)c(Cl)cc21`, the melting point was 150 to 175 °C.
With `CNc1nc(-c2ccc(Br)cc2)cs1` the melting point was 147 °C.
With `NS(=O)(=O)OCCCOc1ccc(-n2ccnc2)cc1` the melting point was 105 to 106 °C.
